system: CD34^+CD38^− cells; experiment: Expansion of CD34+CD38− cells from human cord blood-derived CD34+ cells (Example 2); type: cell-based; details: 1 μg/mL compound, 50 ng/mL SCF, StemSpan SFEM, 7 days; based on number of CD34+CD38− cells in the absence of compound
Procedure: The human cord blood-derived CD34^+ cells collected or purchased in Example 1 were plated on a 24-well plate (TPP) (10000 cells/1/mL/well). As the culture medium, StemSpan SFEM (Stemcell Technologies) containing 50 ng/mL SCF (Peprotech) was used, and Compounds No. 1 to 133 dissolved in dimethyl sulfoxide were added in an amount of 0.1% (v/v) to a final concentration of 1 μg/mL.
After the cells were incubated in liquid culture at 37° C. for 7 days in a CO2 incubator (5% CO2), the number of viable cells was counted by trypan blue assay. The number of CD34^+CD38^− cells was calculated as follows. After the incubation, the cells in the liquid culture was stained with a CD34 antibody (APC, Becton, Dickinson and Company) and a CD38 antibody (PE, Becton, Dickinson and Company), then washed with PBS(−) containing 2% (v/v) FBS and stained with propidium iodide (Sigma-Aldrich Japan) added to a final concentration of 5 μg/mL. The stained cells were analyzed with a flow cytometer JSAN (Bay Bioscience) to determined the proportion of CD34^+CD38^− cells, which was multiplied by the number of viable cells to calculate the number of CD34^+CD38^− cells.
The expansion efficiencies in the presence of 1 μg/mL of compounds based on the number of CD34^+CD38^− cells in the absence of them are shown in Tables 2 and 3 on a scale of A for expansion efficiencies of 10 or greater, B for expansion efficiencies of at least 5 and less than 10, and C for expansion efficiencies of at least 3 and less than 5.

Row | Compound | Expansion efficiency
1 | C/C(=N\NC(=O)c1ccc(C(=O)NCCO)s1)c1csc(-c2ccc(Cl)cc2)c1O [compound 70] | B (B for expansion efficiencies of at least 5 and less than 10)
2 | C/C(=N\NC(=O)c1ccc(C(=O)NCc2cn(C)cn2)s1)c1csc(-c2ccc(C(F)(F)F)cc2)c1O [compound 131] | A (A for expansion efficiencies of 10 or greater)

same assay, conditions: Homo sapiens, 168 h, 1 μg/mL compound, 50 ng/mL SCF, StemSpan SFEM, 7 days; based on number of CD34+CD38− cells in the absence of compound; read-out: Expansion efficiency

Row | Compound | fold induction at 1 µg/mL
3 | C/C(=N\NC(=O)c1ccc(C(=O)NC(C)c2ccc(C(N)=O)cc2)s1)c1csc(-c2ccc(Br)cc2)c1O (centres unmarked) [compound 115] | ≥ 10
4 | C/C(=N\NC(=O)c1ccc(C(=O)NCc2ccc(C(N)=O)cc2)s1)c1csc(-c2ccc(C(F)(F)F)cc2)c1O [compound 88] | ≥ 10
5 | COc1c(/C(C)=N/NC(=O)c2ccc(C(=O)NCc3ccncc3)s2)csc1-c1ccc(Cl)c(Cl)c1 [compound 42] | 5 to 10
6 | C/C(=N\NC(=O)c1ccc(C(=O)NCc2cnc(C)cn2)s1)c1csc(-c2ccc(OC(F)(F)F)cc2)c1O [compound 14] | ≥ 10
7 | C/C(=N\NC(=O)c1ccc(C(=O)NCc2ccccn2)s1)c1csc(-c2ccc(Cl)cc2)c1O [compound 32] | 5 to 10
8 | C/C(=N\NC(=O)c1ccc(C(=O)NCc2ccccn2)s1)c1csc(-c2cccc(Cl)c2)c1O [compound 75] | 3 to 5
9 | C/C(=N\NC(=O)c1ccc(C(=O)NCCN2CCOCC2)s1)c1csc(-c2ccc(Br)cc2)c1O [compound 34] | 3 to 5
10 | C/C(=N\NC(=O)c1ccc(C(=O)NCc2ccno2)s1)c1csc(-c2ccc(C(F)(F)F)cc2)c1O [compound 48] | 5 to 10
11 | C/C(=N\NC(=O)c1ccc(C(=O)NCc2cncn2C)s1)c1csc(-c2ccc(Cl)c(Cl)c2)c1O [compound 51] | 5 to 10
12 | C/C(=N\NC(=O)c1ccc(C(=O)NCc2ccccc2C(N)=O)s1)c1csc(-c2ccc(Cl)cc2)c1O [compound 103] | ≥ 10
13 | C/C(=N\NC(=O)c1ccc(C(=O)NCCN(C)C)s1)c1csc(-c2ccc(Cl)c(Cl)c2)c1O [compound 66] | 3 to 5
14 | COc1cc(CNC(=O)c2ccc(C(=O)N/N=C(\C)c3csc(-c4ccc(Cl)cc4)c3O)s2)on1 [compound 17] | ≥ 10
15 | C/C(=N\NC(=O)c1ccc(C(=O)NCCCN2CCOCC2)s1)c1csc(-c2ccc(Br)cc2)c1O [compound 33] | 5 to 10
16 | C/C(=N\NC(=O)c1ccc(C(=O)N(C)Cc2ccccc2)s1)c1csc(-c2ccc(Cl)c(Cl)c2)c1O [compound 26] | ≥ 10
17 | C/C(=N\NC(=O)c1ccc(C(=O)NCc2cccc(C(N)=O)c2)s1)c1csc(-c2ccc(C(F)(F)F)cc2)c1O [compound 95] | ≥ 10
18 | C/C(=N\NC(=O)c1ccc(C(=O)N(C)Cc2ccccn2)s1)c1csc(-c2ccc(Cl)c(Cl)c2)c1O [compound 80] | 3 to 5
19 | C/C(=N\NC(=O)c1ccc(C(=O)NCc2cc(C)n(C)n2)s1)c1csc(-c2ccc(Cl)cc2)c1O [compound 19] | ≥ 10
20 | C/C(=N\NC(=O)c1ccc(C(=O)NCc2cnc(C)cn2)s1)c1csc(-c2ccc(Cl)c(Cl)c2)c1O [compound 39] | 5 to 10
21 | C/C(=N\NC(=O)c1ccc(C(=O)NCc2cccc(C(N)=O)c2)s1)c1csc(-c2ccc(OC(F)(F)F)cc2)c1O [compound 97] | ≥ 10
22 | COc1cc(CNC(=O)c2ccc(C(=O)N/N=C(\C)c3csc(-c4ccc(Cl)c(Cl)c4)c3O)s2)on1 [compound 7] | ≥ 10
23 | CNC(=O)c1ccc(C(=O)N/N=C(\C)c2csc(-c3ccc(Cl)cc3)c2O)s1 [compound 11] | ≥ 10
24 | C/C(=N\NC(=O)c1ccc(C(=O)NC(C)c2ccc(C(N)=O)cc2)s1)c1csc(-c2ccc(Cl)c(Cl)c2)c1O (centres unmarked) [compound 113] | ≥ 10
25 | COc1ccc(-c2scc(/C(C)=N/NC(=O)c3ccc(C(=O)NC(C)c4ccc(C(N)=O)cc4)s3)c2O)cc1 (centres unmarked) [compound 119] | ≥ 10
26 | CNC(=O)c1ccc(CNC(=O)c2ccc(C(=O)N/N=C(\C)c3csc(-c4ccc(OC(F)(F)F)cc4)c3O)s2)cc1 [compound 111] | ≥ 10
27 | CC(=O)Nc1ccc(C(C)NC(=O)c2ccc(C(=O)N/N=C(\C)c3csc(-c4ccc(Br)cc4)c3O)s2)cc1 (centres unmarked) [compound 122] | ≥ 10
28 | C/C(=N\NC(=O)c1ccc(C(=O)NCc2ccccc2C(N)=O)s1)c1csc(-c2ccc(C(F)(F)F)cc2)c1O [compound 102] | ≥ 10
29 | C/C(=N\NC(=O)c1ccc(C(=O)NCc2cc(C)n(C)n2)s1)c1csc(-c2ccc(OC(F)(F)F)cc2)c1O [compound 128] | ≥ 10

Row | Compound | fold induction at 1 µg/mL
30 | C/C(=N\NC(=O)c1ccc(C(=O)NCc2ccncc2)s1)c1csc(-c2ccc(Cl)c(Cl)c2)c1O [compound 5] | ≥ 10
31 | C/C(=N\NC(=O)c1ccc(C(=O)NCc2ccccc2C(N)=O)s1)c1csc(-c2ccc(Cl)c(Cl)c2)c1O [compound 99] | ≥ 10
32 | C/C(=N\NC(=O)c1ccc(C(=O)NCc2cc[n+]([O-])cc2)s1)c1csc(-c2ccc(Cl)cc2)c1O [compound 18] | ≥ 10
33 | C/C(=N\NC(=O)c1ccc(C(=O)NCc2ccnnc2)s1)c1csc(-c2ccc(Cl)c(Cl)c2)c1O [compound 43] | ≥ 10
34 | CC(=O)Nc1ccc(C(C)NC(=O)c2ccc(C(=O)N/N=C(\C)c3csc(-c4ccc(C(F)(F)F)cc4)c3O)s2)cc1 (centres unmarked) [compound 123] | ≥ 10
35 | C/C(=N\NC(=O)c1ccc(C(=O)NCc2cccc(C(N)=O)c2)s1)c1csc(-c2ccc(Cl)cc2)c1O [compound 96] | ≥ 10
36 | C/C(=N\NC(=O)c1ccc(C(=O)NCc2cc(C)n(C)n2)s1)c1csc(-c2ccc(Br)cc2)c1O [compound 127] | ≥ 10
37 | CCCN(CC)C(=O)c1ccc(C(=O)N/N=C(\C)c2csc(-c3ccc(Cl)c(Cl)c3)c2O)s1 [compound 85] | 3 to 5
38 | C/C(=N\NC(=O)c1ccc(C(=O)NCc2cnccn2)s1)c1csc(-c2ccc(Cl)c(Cl)c2)c1O [compound 8] | ≥ 10
39 | COCCNC(=O)c1ccc(C(=O)N/N=C(\C)c2csc(-c3ccc(Cl)c(Cl)c3)c2O)s1 [compound 22] | 5 to 10
40 | CNC(=O)c1ccc(CNC(=O)c2ccc(C(=O)N/N=C(\C)c3csc(-c4ccc(Br)cc4)c3O)s2)cc1 [compound 108] | ≥ 10
41 | C/C(=N\NC(=O)c1ccc(C(=O)NCc2ccnn2C)s1)c1csc(-c2ccc(C(F)(F)F)cc2)c1O [compound 45] | 5 to 10
42 | CCNC(=O)c1ccc(C(=O)N/N=C(\C)c2csc(-c3ccc(Cl)c(Cl)c3)c2O)s1 [compound 24] | 5 to 10
43 | C/C(=N\NC(=O)c1ccc(C(=O)NC(C)c2ccc(C(N)=O)cc2)s1)c1csc(-c2ccc(Cl)cc2)c1O (centres unmarked) [compound 117] | ≥ 10
44 | C/C(=N\NC(=O)c1ccc(C(=O)NCc2ccno2)s1)c1csc(-c2ccc(Cl)c(Cl)c2)c1O [compound 40] | 5 to 10
45 | C/C(=N\NC(=O)c1ccc(C(=O)NCc2cscn2)s1)c1csc(-c2ccc(Cl)c(Cl)c2)c1O [compound 35] | 5 to 10
46 | COc1ccc(-c2scc(/C(C)=N/NC(=O)c3ccc(C(=O)NCc4cc(C)n(C)n4)s3)c2O)cc1 [compound 129] | ≥ 10
47 | C/C(=N\NC(=O)c1ccc(C(=O)NC(C)c2ccc(C(N)=O)cc2)s1)c1csc(-c2ccc(C(C)(C)C)cc2)c1O (centres unmarked) [compound 114] | ≥ 10
48 | C/C(=N\NC(=O)c1ccc(C(=O)NCc2cn(C)cn2)s1)c1csc(-c2ccc(Cl)cc2)c1O [compound 132] | ≥ 10
49 | COc1cc(CNC(=O)c2ccc(C(=O)N/N=C(\C)c3csc(-c4ccc(OC(F)(F)F)cc4)c3O)s2)on1 [compound 15] | ≥ 10
50 | COc1ccc(-c2scc(/C(C)=N/NC(=O)c3ccc(C(=O)NCc4ccccc4C(N)=O)s3)c2O)cc1 [compound 105] | 5 to 10
51 | C/C(=N\NC(=O)c1ccc(C(=O)NCc2cc[n+]([O-])cc2)s1)c1csc(-c2ccc(C(F)(F)F)cc2)c1O [compound 57] | 5 to 10
52 | CC(=O)Nc1ccc(C(C)NC(=O)c2ccc(C(=O)N/N=C(\C)c3csc(-c4ccc(Cl)c(Cl)c4)c3O)s2)cc1 (centres unmarked) [compound 120] | ≥ 10
53 | C/C(=N\NC(=O)c1ccc(C(=O)NCc2cccs2)s1)c1csc(-c2cccc(Cl)c2)c1O [compound 30] | 5 to 10
54 | C/C(=N\NC(=O)c1ccc(C(=O)NC(C)c2ccc(C(N)=O)cc2)s1)c1csc(-c2ccc(C(F)(F)F)cc2)c1O (centres unmarked) [compound 116] | ≥ 10
55 | C/C(=N\NC(=O)c1ccc(C(=O)NCc2ccccc2)s1)c1csc(-c2ccc(Cl)c(Cl)c2)c1O [compound 16] | ≥ 10
56 | CNC(=O)c1ccc(CNC(=O)c2ccc(C(=O)N/N=C(\C)c3csc(-c4ccc(OC)cc4)c3O)s2)cc1 [compound 112] | ≥ 10
